Values after ≈ are worked out from the molar mass of the structure shown.
Tests used:
[1] = Water solubility at 25° C. of fragrance ingredients; settings: 25° C.
Description: (§1) Also included is the molecular weight of each of the fragrance ingredients. Not determinable (ND).

physchem = test: physchem
Description: The term “fragrance composition” or “composition,” as used herein, represents a composition containing one or more fragrance ingredients described here and formulated with a physiologically acceptable diluent or solvent, used interchangeably here. In a fragrance composition, or composition that has a fragrance, such as a perfume, 20%-40% of the observable liquid may be comprised of a diluent, i.e., the delivery system for scents of the fragrance ingredients. The “log P” value, as used here, indicates whether a substance or fragrance ingredient will be absorbed by humans, animals, plants, or living tissue; diffused or disseminated by water.
as §1

[2] = Solubility of fragrance ingredients in bioderived 1,3-BG (visual inspection); settings: 10% ingredient in bioderived 1,3-BG; excellent, good, moderate, poor, or none
Description: (§2) Clarity for each of the fragrance ingredients (10% in bioderived 1,3-BG) was determined by visual observations after compounding and blending the fragrance ingredient with bioderived 1,3-BG and identified as clear, slightly haze, cloudy, particles, or separation.
(§3) Clarity for each of the fragrance ingredients (at 1% in bioderived 1,3-BG) was determined by visual observations after compounding and blending the fragrance ingredient with bioderived 1,3-BG and identified as clear, slightly haze, cloudy, particles, or separation.

[3] = Flash point of fragrance ingredients; assay type: physicochemical
Description: as §1

[4] = Vapor pressure of fragrance ingredients
Description: as §1

[5] = Clarity of fragrance ingredient in bioderived 1,3-BG by visual observation; settings: 10% ingredient in bioderived 1,3-BG; clear, slightly haze, cloudy, particles, or separation
Description: as §2, §3

[6] = Repeated Insult Patch Test; assay type: in vivo, human
Description: Prior to the initiation of the study, each jar containing the test material received a N2 blanket conducted by the Analytical Department at Consumer Product Testing Company.
The upper back between the scapulae served as the treatment area. Approximately 0.2 ml of the test material, or an amount sufficient to cover the contact surface, was applied to the 1″×1″ absorbent pad portion of a clear adhesive dressing. This was then applied to the appropriate treatment site to form a semi-occlusive patch.
Erythema was scored numerically according to the key in TABLE 16. If present, additional Dermal Sequelae were indicated by the appropriate letter code and a numerical value for severity was assigned.
Patches were applied three (3) times per week (e.g., Monday, Wednesday, and Friday) for a total of nine (9) applications. The site was marked to ensure the continuity of patch application. Following supervised removal and scoring of the first Induction patch, participants were instructed to remove all subsequent Induction patches at home, twenty-four hours after application. The evaluation of this site was made again just prior to re-application. If a participant was unable to report for an assigned test day, one (1) makeup day was permitted. This day was added to the Induction period.
Applications were discontinued for the remainder of this test phase, if a moderate (2-level) reaction was observed on this new test site. Applications would also be discontinued if marked (3-level) or severe (4-level) reactivity was noted.
Rest periods consisted of one day following each Tuesday and Thursday removal, and two days following each Saturday removal.
Approximately two (2) weeks after the final Induction patch application, a Challenge patch was applied to a virgin test site adjacent to the original Induction patch site, following the same procedure described for the Induction Phase. The Challenge patch was removed and the site scored at the clinic on Day 1 and Day 3 post-application.

[7] = Technical quality analysis (viscosity, precipitation, color, visual clarity, skin testing)
Description: Color changes were noted if there were any color variation resulting from the addition of fragrance ingredient in diluent. For select fragrance ingredients, skin testing was performed. Specifically, in the first round of testing, skin odor evaluation was performed on an interim basis for selective ingredients.

microorganisms = test: Minimum Inhibitory Concentration (MIC) testing; assay type: cell-based

## CCCc1ccc(O)c(OC)c1 [Dihydro Eugenol]
[1]
  Water Solubility: 228.000 µg/mL
physchem
  logP: 2.39
[2]
  Solubility 10%: Good
[3]
  Flash Point: 100 °C
[4]
  Vapor Pressure: 0.006 mm hg
[5]
  Clarity 10%: Clear

## CCCCCC1C(=O)CCC1CC(=O)OC (centres unmarked) [Hedione]
[1]
  Water Solubility: 91.720 µg/mL
physchem
  logP: 2.653
[2]
  Solubility 10%: Good
[3]
  Flash Point: 148 °C
[4]
  Vapor Pressure: 0.001 mm hg
[5]
  Clarity 10%: Clear

## CC(O)CCO (centres unmarked) [bioBG, 1,3-butylene glycol]
[6]; 40% dilution in water
  adverse events: no adverse events
[6]; bioBG diluted to 40%, human subjects, Challenge patch, Day 1 post-application, supervised removal, one line per subject
  Virgin Challenge Site Day 1* skin reaction score: 0
[6]; bioBG diluted to 40%, human subjects, Challenge patch, Day 3 post-application, one line per subject
  Virgin Challenge Site Day 3 skin reaction score: 0
[6]; bioBG diluted to 40%, human subjects, Induction reading 2, one line per subject
  Induction Phase 2 skin reaction score: 0
[6]; bioBG diluted to 40%, human subjects, Induction reading 3, one line per subject
  Induction Phase 3 skin reaction score: 0
[6]; bioBG diluted to 40%, human subjects, Induction reading 4, one line per subject
  Induction Phase 4 skin reaction score: 0
[6]; bioBG diluted to 40%, human subjects, Induction reading 5, one line per subject
  Induction Phase 5 skin reaction score: 0
[6]; bioBG diluted to 40%, human subjects, Induction reading 6, one line per subject
  Induction Phase 6 skin reaction score: 0
[6]; bioBG diluted to 40%, human subjects, Induction reading 7, one line per subject
  Induction Phase 7 skin reaction score: 0
[6]; bioBG diluted to 40%, human subjects, Induction reading 8, one line per subject
  Induction Phase 8 skin reaction score: 0
[6]; bioBG diluted to 40%, human subjects, Induction reading 9, one line per subject
  Induction Phase 9 skin reaction score: 0
[6]; bioBG diluted to 40%, human subjects, first Induction patch, supervised removal, one line per subject
  Induction Phase Day 1* skin reaction score: 0
[6]; up to a concentration of 40%
  skin properties when applied to skin: non-irritating, non-sensitizing, and/or non-allergenic
[7]
  visual clarity compared to DPG, BB, IPM: exceptional visual clarity with a crystal clear appearance
[7]; observed with the different fragrance ingredients
  viscosity: very consistent
microorganisms; Escherichia coli, E. coli, concentration completely inhibiting microbial growth
  MIC: 100 mg/mL (≈ 1110 mM)
microorganisms; compared to 1,3-PG and glycerin
  inhibition of microbial growth in MIC tests: increased ability to inhibit microbial growth compared to 1,3-Propylene Glycol (1,3-PG) and glycerin

— patent publication US20240225971A1 (Genomatica, Inc., priority 2021, published 2024)
